Source: BindingDB's records for doi:10.1021/jm00019a005 (Warner-Lambert, 1995)

Biological target: Type-2 angiotensin II receptor (Oryctolagus cuniculus)
Assay: The compound was tested for binding affinity against Angiotensin II receptor, type 2 from rabbit uterus membrane by using [125I]AngII as radioligand

Row | IC50 | Compound
1 | 0.789 µM | CCCCc1ncc(C=C2C(=O)NC(=O)N2CCCC)n1Cc1ccc(-c2ccccc2-c2nnn[nH]2)cc1 [1-Butyl-5-[1-{2-butyl-3-[2'-(1H-tetrazol-5-yl)-biphenyl-4-ylmethyl]-3H-imidazol-4-yl}-meth-(Z)-ylidene]-imidazolidine-2,4-dione]
2 | 5.87 µM | CCCCc1ncc(/C=C2/C(=O)N(CCCC)C(=O)N2CCCC)n1Cc1ccc(C(=O)OC)cc1 [4-{2-Butyl-5-[1,3-dibutyl-2,5-dioxo-imidazolidin-(4Z)-ylidenemethyl]-imidazol-1-ylmethyl}-benzoic acid methyl ester]
